Laboratory results taken from ChEMBL document CHEMBL3621176, “Inhibitors of the Renal Outer Medullary Potassium Channel” (ACS Med Chem Lett, 2015).

Each molecule was assayed against T1, ATP-sensitive inward rectifier potassium channel 1 (Homo sapiens, UniProt P48048) (assay: Inhibition of human Kir1.1 expressed in HEK293 cells by thallium flux assay).
T1 sequence (P48048 whole entry): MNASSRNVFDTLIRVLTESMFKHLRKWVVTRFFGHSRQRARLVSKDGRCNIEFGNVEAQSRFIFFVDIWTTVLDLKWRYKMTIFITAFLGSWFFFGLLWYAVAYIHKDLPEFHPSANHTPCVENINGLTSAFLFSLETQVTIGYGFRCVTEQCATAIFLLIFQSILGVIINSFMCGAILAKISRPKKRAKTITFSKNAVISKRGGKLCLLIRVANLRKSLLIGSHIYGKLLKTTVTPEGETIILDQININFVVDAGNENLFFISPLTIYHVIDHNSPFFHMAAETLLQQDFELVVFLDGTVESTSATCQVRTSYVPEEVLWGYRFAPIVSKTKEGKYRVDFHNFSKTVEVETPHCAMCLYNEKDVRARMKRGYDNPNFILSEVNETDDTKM
Type: cell-based

Q: How did the IC50 turn out when `Cc1c([C@@H](O)CN2CCC3(CC2)CCN(c2cnc(C#N)cn2)CC3)ccc2c1COC2=O` was run?
A: 9 nM

Q: `Cc1c([C@@H](O)CN2CCC3(CC2)CCN(c2ncc(C#N)cn2)CC3)ccc2c1COC2=O` was tested. Which IC50 did it give?
A: 14 nM

Q: Which IC50 does the source give for `Cc1cc(N2CCC3(CCN(C[C@H](O)c4ccc5c(c4C)COC5=O)CC3)C2)ncc1C#N` here?
A: 17 nM

Q: With `Cc1c([C@@H](N)CN2CCC3(CC2)CC(=O)N(c2ccc(C#N)cn2)C3)ccc2c1COC2=O` as the molecule, how does the IC50 read?
A: 14 nM

Q: With `Cc1c([C@@H](O)CN2CCC3(CC2)CCN(c2ccc(C#N)nn2)CC3)ccc2c1COC2=O` as the molecule, how does the IC50 read?
A: 13 nM

Q: For `Cc1cc(C#N)cnc1N1CCC2(CCN(C[C@H](O)c3ccc4c(c3C)COC4=O)CC2)C1`, which IC50 is on record?
A: 20 nM

Q: `Cc1c([C@@H](O)CN2CCC3(CC2)CCN(c2ccc(C#N)cc2)C3)ccc2c1COC2=O` was tested. Which IC50 did it give?
A: 15 nM

Q: How did the IC50 turn out when `Cc1nc(N2CCC3(CCN(C[C@H](O)c4ccc5c(c4C)COC5=O)CC3)C2)ccc1C#N` was run?
A: 14 nM
